# Several values for one entry are separate records, joined by “and”; a condition that tells them apart may be missing. Equal entries are not always repeated.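 A five-concentration, 48-hour dose response in 96-well plates underlies each endpoint, interpolated linearly between surrounding concentrations. GI50 marks 50% less growth. TGI marks complete inhibition of growth.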
# Assays:
# Assay in all cases: DTP human tumour cell line panel, 48 h
# UO-31 renal = tested on: UO-31 renal
# OVCAR-8 ovarian = tested on: OVCAR-8 ovarian
# MALME-3M melanoma = tested on: MALME-3M melanoma
# SNB-75 CNS = tested on: SNB-75 CNS
# CCRF-CEM leukemia = tested on: CCRF-CEM leukemia
# U251 CNS = tested on: U251 CNS
# UACC-62 melanoma = tested on: UACC-62 melanoma
# HCT-116 colon = tested on: HCT-116 colon
# NCI/ADR-RES ovarian = tested on: NCI/ADR-RES ovarian
# EKVX NSCLC = tested on: EKVX NSCLC
# MDA-MB-231 breast = tested on: MDA-MB-231 breast
# SF-268 CNS = tested on: SF-268 CNS
# HS 578T breast = tested on: HS 578T breast
# M14 melanoma = tested on: M14 melanoma
# SK-MEL-2 melanoma = tested on: SK-MEL-2 melanoma
# MDA-N = tested on: MDA-N
# SK-MEL-5 melanoma = tested on: SK-MEL-5 melanoma
# NCI-H522 lung = tested on: NCI-H522 lung
# MDA-MB-435 = tested on: MDA-MB-435
# COLO 205 colon = tested on: COLO 205 colon
# SF-295 CNS = tested on: SF-295 CNS
# DU-145 prostate = tested on: DU-145 prostate
# K-562 leukemia = tested on: K-562 leukemia
# NCI-H23 lung = tested on: NCI-H23 lung
# OVCAR-4 ovarian = tested on: OVCAR-4 ovarian
# HCC-2998 colon = tested on: HCC-2998 colon
# HOP-62 NSCLC = tested on: HOP-62 NSCLC
# SR leukemia = tested on: SR leukemia
# A549 NSCLC = tested on: A549 NSCLC
# IGROV1 ovarian = tested on: IGROV1 ovarian
# SK-MEL-28 melanoma = tested on: SK-MEL-28 melanoma
# ACHN renal = tested on: ACHN renal
# RPMI-8226 leukemia = tested on: RPMI-8226 leukemia
# NCI-H460 lung = tested on: NCI-H460 lung
# OVCAR-3 ovarian = tested on: OVCAR-3 ovarian
# TK-10 renal = tested on: TK-10 renal
# UACC-257 melanoma = tested on: UACC-257 melanoma
# PC-3 prostate = tested on: PC-3 prostate
# SN12C renal = tested on: SN12C renal
# SNB-19 CNS = tested on: SNB-19 CNS
# SF-539 CNS = tested on: SF-539 CNS
# SW-620 colon = tested on: SW-620 colon
# HT29 colon = tested on: HT29 colon
# HCT-15 colon = tested on: HCT-15 colon
# MOLT-4 leukemia = tested on: MOLT-4 leukemia
# HL-60(TB) leukemia = tested on: HL-60(TB) leukemia
# A498 renal = tested on: A498 renal
# RXF 393 renal = tested on: RXF 393 renal
# NCI-H226 lung = tested on: NCI-H226 lung
# KM12 colon = tested on: KM12 colon
# OVCAR-5 ovarian = tested on: OVCAR-5 ovarian
# T-47D breast = tested on: T-47D breast
# LOX IMVI melanoma = tested on: LOX IMVI melanoma
# SK-OV-3 ovarian = tested on: SK-OV-3 ovarian
# CAKI-1 renal = tested on: CAKI-1 renal
# 786-0 renal = tested on: 786-0 renal
# MCF7 breast = tested on: MCF7 breast
# HOP-92 NSCLC = tested on: HOP-92 NSCLC
compound,measurement,setting,value
CC(=O)CC1(OC(=O)C2C(C=C(C)C)C2(C)C)C(=O)Nc2ccccc21 (stereo not given),TGI,UO-31 renal,> 100 µM
same,TGI,OVCAR-8 ovarian,> 100 µM
same,TGI,MALME-3M melanoma,> 100 µM
same,TGI,SNB-75 CNS,> 100 µM
same,TGI,CCRF-CEM leukemia,> 100 µM
same,TGI,U251 CNS,> 100 µM
same,TGI,UACC-62 melanoma,> 100 µM
same,TGI,HCT-116 colon,> 100 µM
same,TGI,NCI/ADR-RES ovarian,> 100 µM
same,TGI,EKVX NSCLC,> 100 µM
same,TGI,MDA-MB-231 breast,> 100 µM
same,TGI,SF-268 CNS,> 100 µM
same,TGI,HS 578T breast,> 100 µM
same,TGI,M14 melanoma,> 100 µM
same,TGI,SK-MEL-2 melanoma,> 100 µM
same,TGI,MDA-N,> 100 µM
same,TGI,SK-MEL-5 melanoma,> 100 µM
same,TGI,NCI-H522 lung,> 100 µM
same,TGI,MDA-MB-435,> 100 µM
same,TGI,COLO 205 colon,> 100 µM
same,TGI,SF-295 CNS,> 100 µM
same,TGI,DU-145 prostate,> 100 µM
same,TGI,K-562 leukemia,> 100 µM
same,TGI,NCI-H23 lung,> 100 µM
same,TGI,OVCAR-4 ovarian,> 100 µM
same,TGI,HCC-2998 colon,> 100 µM
same,TGI,HOP-62 NSCLC,> 100 µM
same,TGI,SR leukemia,> 100 µM
same,TGI,A549 NSCLC,> 100 µM
same,TGI,IGROV1 ovarian,> 100 µM
same,TGI,SK-MEL-28 melanoma,> 100 µM
same,TGI,ACHN renal,> 100 µM
same,TGI,RPMI-8226 leukemia,> 100 µM
same,TGI,NCI-H460 lung,> 100 µM
same,TGI,OVCAR-3 ovarian,> 100 µM
same,TGI,TK-10 renal,> 100 µM
same,TGI,UACC-257 melanoma,> 100 µM
same,TGI,PC-3 prostate,> 100 µM
same,TGI,SN12C renal,> 100 µM
same,TGI,SNB-19 CNS,> 100 µM
same,TGI,SF-539 CNS,> 100 µM
same,TGI,SW-620 colon,> 100 µM
same,TGI,HT29 colon,> 100 µM
same,TGI,HCT-15 colon,> 100 µM
same,TGI,MOLT-4 leukemia,> 100 µM
same,TGI,HL-60(TB) leukemia,> 100 µM
same,TGI,A498 renal,> 100 µM
same,TGI,RXF 393 renal,> 100 µM
same,TGI,NCI-H226 lung,> 100 µM
same,TGI,KM12 colon,> 100 µM
same,TGI,OVCAR-5 ovarian,> 100 µM
same,TGI,T-47D breast,> 100 µM
same,TGI,LOX IMVI melanoma,> 100 µM
same,TGI,SK-OV-3 ovarian,> 100 µM
same,TGI,CAKI-1 renal,> 100 µM
same,TGI,786-0 renal,> 100 µM
CC(=O)OCC1OC(Sc2nc(-c3ccc(Cl)cc3)c(C#N)c(=O)n2C2OC(COC(C)=O)C(OC(C)=O)C(OC(C)=O)C2OC(C)=O)C(OC(C)=O)C(OC(C)=O)C1OC(C)=O (stereo not given),GI50,UO-31 renal,27.7 µM and 55.9 µM
same,TGI,UO-31 renal,> 100 µM
same,GI50,OVCAR-8 ovarian,> 100 µM and 17.2 µM
same,TGI,OVCAR-8 ovarian,> 100 µM
same,TGI,U251 CNS,> 100 µM
same,TGI,MCF7 breast,> 100 µM and 15.4 µM
same,TGI,HCT-116 colon,> 100 µM
same,GI50,NCI/ADR-RES ovarian,> 100 µM and 10.2 µM
same,TGI,NCI/ADR-RES ovarian,> 100 µM
same,TGI,EKVX NSCLC,> 100 µM
same,TGI,HS 578T breast,> 100 µM and 34.3 µM
same,TGI,M14 melanoma,> 100 µM
same,GI50,SK-MEL-2 melanoma,> 100 µM and 17.4 µM
same,TGI,SK-MEL-2 melanoma,> 100 µM
same,TGI,MDA-N,> 100 µM and 13.2 µM
same,TGI,SK-MEL-5 melanoma,> 100 µM and 12.8 µM
same,TGI,MDA-MB-435,> 100 µM and 19.7 µM
same,TGI,COLO 205 colon,> 100 µM and 19.3 µM
same,TGI,DU-145 prostate,> 100 µM and 25.3 µM
same,GI50,K-562 leukemia,36.6 µM
same,TGI,K-562 leukemia,> 100 µM
same,TGI,NCI-H23 lung,> 100 µM and 20 µM
same,TGI,OVCAR-4 ovarian,12.1 µM
same,TGI,HOP-62 NSCLC,> 100 µM and 18.5 µM
same,GI50,HOP-92 NSCLC,2.13 µM
same,TGI,HOP-92 NSCLC,9.15 µM
same,TGI,SR leukemia,99.8 µM
same,TGI,A549 NSCLC,> 100 µM
same,TGI,IGROV1 ovarian,> 100 µM and 33.5 µM
same,TGI,RPMI-8226 leukemia,> 100 µM
same,TGI,OVCAR-3 ovarian,> 100 µM and 24.8 µM
same,GI50,TK-10 renal,> 100 µM and 20.2 µM
same,TGI,TK-10 renal,> 100 µM and 47.8 µM
same,TGI,UACC-257 melanoma,> 100 µM and 10.8 µM
same,TGI,PC-3 prostate,> 100 µM and 24.4 µM
same,GI50,SNB-19 CNS,> 100 µM and 10.7 µM
same,TGI,SNB-19 CNS,> 100 µM and 23.1 µM
same,TGI,SW-620 colon,> 100 µM
same,TGI,HCT-15 colon,> 100 µM and 13.6 µM
same,TGI,MOLT-4 leukemia,> 100 µM
same,TGI,HL-60(TB) leukemia,8.82 µM
same,TGI,NCI-H226 lung,> 100 µM and 12.1 µM
same,TGI,KM12 colon,> 100 µM and 31 µM
same,TGI,OVCAR-5 ovarian,> 100 µM and 21.9 µM
same,GI50,T-47D breast,89.8 µM and 17.7 µM
same,TGI,T-47D breast,> 100 µM
same,GI50,LOX IMVI melanoma,26.9 µM and 8.49 µM
same,TGI,LOX IMVI melanoma,> 100 µM
same,TGI,SK-OV-3 ovarian,> 100 µM and 11.2 µM

# Reference: PubChem BioAssay (NCI)
